Data set [1] concerns OE33 xenograft tumors. As to the kind of experiment: In vivo NIR fluorescence imaging of OE33 xenograft tumors (Cy5.5). Set-up: species or system nude mice. The protocol:
(§1) Optical imaging was performed in nude mice bearing xenograft tumors in vivo to characterize pharmacokinetics and assess toxicity. All experimental procedures were performed in accordance with relevant guidelines and regulations of the University of Michigan, and all animal studies were conducted with approval by the University Committee on the Use and Care of Animals (UCUCA). Animals were housed per guidelines of the Unit for Laboratory Animal Medicine (ULAM).
Female athymic nude mice (002019 Foxn1, Jackson Laboratories) were obtained at 4-5 weeks of age, and were housed with four animals per cage and fed with sterilized pellet chow and water. Mice were anesthetized in an isoflurane chamber, and OE33 xenograft tumors were generated by subcutaneous injection of about 5×10^7 tumor cells suspended in […] of sterile PBS in the hind limb flank. Mice were studied at about 3-4 weeks post-inoculation when the tumor volume reached about 0.5-0.8 cm in size.
In vivo fluorescence images were collected using the Xenogen IVIS™ 200 small animal imaging system. Fluorescence intensities were measured and normalized. […] Images were collected prior to peptide injection to assess baseline auto-fluorescence values and then at various time points post-injection up to 24 hours, FIG. 5A. Fluorescence images were excited at λex=675 nm, and emission was collected at λem=740 nm with 5 sec exposure (f/stop=8).

Data set [2] relates to OE33 cells. The experiment in a line: Apparent dissociation constant by flow cytometry with OE33 cells. It is filed as binding, human. The protocol: The apparent dissociation constant (Kd) was measured to assess binding affinity of the heterodimer to OE33 cells. The heterodimer was serially diluted in PBS at concentrations of about 0, 10, 25, 50, 100, and 200 nM with about […] at 4° C. for one hour and washed with cold PBS. The mean fluorescence intensities were measured with flow cytometry (BD LSRII, BD Biosciences). The equilibrium dissociation constant Kd 1/Ka was calculated with a least-squares fit of the data to the nonlinear equation I=(I0+ImaxKa[X])/(I0+Ka[X]). I0 and Imax are the initial and maximum fluorescence intensities, corresponding to no peptide and at saturation, respectively, and [X] represents the concentration of bound peptide. Prism 5.0 software (Graphpad Inc.) was used to calculate Kd and Ka.
A general note: In flow cytometry, cells or beads pass a laser one at a time.

Data set [3] concerns OE33 cells. As to the kind of experiment: Apparent association time constant by flow cytometry with OE33 cells. The data set is classed as binding, human. On the procedure: The apparent association time constant (Ka) was measured to assess binding kinetics to OE33 cells. OE33 cells were grown to about 80% confluence in 10 cm dishes, and cells were then detached with PBS-based cell dissociation buffer (Invitrogen). About 10^5 cells were incubated with 1 μM of the heterodimer at 4° C. for different time periods ranging from […]. The cells were centrifuged, washed with cold PBS, and fixed with 4% PFA. Flow cytometry was performed, and the median fluorescence intensity (y) was ratioed with that of OE33 cells without addition of peptide at time points (t) using Flowjo software. The rate constant K was calculated by fitting the data to the first-order kinetics model, y(t)=Imax[1−exp^(−kt)], where Imax=maximum value, using Prism 5.0 software.

Data set [4] deals with OE33 xenograft tumors. The experiment in a line: In vivo competition with unlabeled peptide monomers. To be noted: two hours after heterodimer injection. Set-up: species or system mice. The protocol:
In vivo heterodimer specificity was assessed by competition with 3000 μM of unlabeled peptide monomer or a mixture of two monomers diluted in 50 μL of PBS injected 20 min beforehand in tumor-bearing mice (n=4 per group). Blocking studies were carried out by injecting unlabeled QRH*, KSP*, and both monomers together to validate in vivo specificity. Images were collected at two hours after heterodimer injection when peak uptake was expected. The ratio of fluorescence intensity in tumor was calculated using regions of interest (ROI), and the results were presented as mean±standard deviation (SD).

The subject of data set [5] is EGFR and/or ErbB2 in SKBr3 cells. The experiment in a line: Co-localization of Cy5.5 heterodimer with anti-EGFR and anti-ErbB2 antibodies on SKBr3 cells. The data set is classed as cell-based, human. The note with it: confocal microscopy. On the procedure:
Co-localization experiments were performed to validate specific heterodimer binding to EGFR and/or ErbB2 in SKBr3 cells. Cells were cultured to about 70% confluence on glass coverslips, washed with PBS, and incubated with 2% BSA in PBS for 30 min to block non-specific binding. 1 μM of Cy5.5-labeled peptides were added and incubated for 30 min or 1 hour at 4° C. The cells were then washed 3× with PBS, fixed with ice cold 4% paraformaldehyde (PFA) for 10 min, washed with PBS 1×, and then mounted on glass slides with ProLong Gold reagent containing DAPI (Invitrogen).
For antibody staining, cells were incubated with either anti-EGFR (1:500, #2232S) or anti-ErbB2 (1:500, #29D8) primary antibody from Cell Signaling Inc overnight at 4° C. after fixation, and then washed with PBS 3× and processed with secondary antibody staining. Either goat anti-rabbit IgG (H+L) labeled with Alexa-Fluor 488 (1:1000, #A-11008, Invitrogen) or goat anti-mouse IgG (H&L) labeled with Alexa-Fluor 568 (1:1000, #ab175473, Abcam) was added and incubated for 1 hour at room temperature (RT). The cells were washed with PBS 3×, and mounted onto glass coverslips. Confocal fluorescence images were collected using DAPI, AF488, AF568 and Cy5.5 filter sets. Fluorescence intensities from 3 independent images were quantified using custom Matlab (Mathworks) software.

The nature of data set [6]: Acute toxicity, histology (H&E) of major organs. It is filed as in vivo, mice. To be noted: brain, heart, kidney, liver, spleen and lung; after day 15. The protocol:
as §1

The subject of data set [7] is SKBr3 cells. As to the kind of experiment: Heterodimer internalization in SKBr3 cells over time (confocal). The data set is classed as cell-based, human. On the procedure:
Using confocal microscopy, images were collected over time to evaluate heterodimer internalization. […] Binding by anti-EGFR-AF568 (yellow) and anti-ErbB2-AF488 (green) to the surface (arrows) of the same cells is shown for comparison. On the merged images, a Pearson's correlation coefficient was measured for the heterodimer with the anti-EGFR antibody (ρ=0.77) and the anti-ErbB2 (ρ=0.65) antibody. […] The DAPI images highlight the location of cell nuclei prior to heterodimer incubation, FIG. 3B. Binding of QRH*-KSP*-E3-Cy5.5 (red) to the cell surface is seen at […]. The heterodimer starts to internalize at 4 min, and complete internalization is seen at 40 min.

Where “and” joins values, the source holds several entries; their conditions need not be identical. Identical values can stand only once.

For the substance “heterodimer of QRHKPRE (SEQ ID NO: 1) and KSPNPRF (SEQ ID NO: 2) with E3 (triethyleneglycol) linker, Cy5.5 label [QRH*-KSP*-E3-Cy5.5]”, in data set [1] (about 2 hours after intravenous injection, n=6), the “peak mean tumor signal versus control peptide” value is “significantly greater”. In addition, in data set [1] (intravenous, OE33 xenograft), the “time of return of signal to baseline / systemic clearance” value was “about 24 hours”. The “improved binding affinity compared with either monomer alone” value in data set [2] is 2 fold. Moreover, the Kd in data set [2] (flow cytometry, 4° C.) was found to be 23 nM. For the same substance, in data set [3] (flow cytometry, 1 μM, 4° C.), the “apparent association time constant Ka” value came out at 0.22 min⁻¹. In data set [3] (value in brackets after Ka), the “apparent association time constant (time)” value came to 4.5 min. Moreover, in data set [4], the “tumor signal after prior injection of unlabeled QRH*, KSP*, or both” value is listed as “reduction of signal”. In addition, the “binding to surface of SKBr3 cells” value in data set [5] is “bind strongly”. The “acute toxicity on histology (H&E)” value in data set [6] is listed as “no sign of acute toxicity”. For the same substance, in data set [7], the “time at which heterodimer starts to internalize” value is 4 min and 8 to 20 min; the “time of complete internalization / strong signal inside cells” value is reported as 40 min.

The values above are taken from US20250263439A1, “HETERODIMERIC PEPTIDE REAGENTS AND METHODS” (REGENTS OF THE UNIVERSITY OF MICHIGAN, priority 2018, published 2025).
